Data published in paper PMC9427925, “The measurement of binding affinities by NMR chemical shift perturbation” (Journal of Biomolecular Nmr, 2022).

Target: T1, HisJ (Escherichia coli, UniProt P0AEU0)
T1 construct: HisJ (241 residues)
Test: […] HSQC/TROSY NMR chemical shift perturbation titration, global fit of all 1H and […] shifts
Format: binding

T1 sequence (P0AEU0 23-260): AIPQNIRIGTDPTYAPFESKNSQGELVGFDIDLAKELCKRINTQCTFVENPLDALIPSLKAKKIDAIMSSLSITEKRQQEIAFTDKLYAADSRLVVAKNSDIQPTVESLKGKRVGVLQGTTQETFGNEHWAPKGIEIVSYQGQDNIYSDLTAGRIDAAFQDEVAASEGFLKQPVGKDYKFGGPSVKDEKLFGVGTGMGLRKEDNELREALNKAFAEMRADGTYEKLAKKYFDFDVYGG

For `NCCCC[C@H](N)C(=O)O` [lysine], which Kd is on record?
The Kd was 55.3 ± 0.4 µM.
